assay: Human HepG2 cell viability assay in 384 well format; type: toxicity, cell-based; parameters: dose 125 nL, time 70.5 hour; concentration not given beside the values; details: HepG2 cells, read-out: Inhibition

First: CC(CNC(=O)c1ccc(=O)[nH]n1)N1CCc2ccccc21 (configuration not stated)
Second: CN(C(=O)Nc1ccncc1)C1CCN(c2ccccc2)C1=O (configuration not stated)
The cytotoxicity at 70.5 h of the first is higher: 2.77% for the first, -11.8% for the second.

Going from `Cc1nc(N2CCC(C)CC2)ncc1-c1cc(O)nc(N2CCCC2)n1` to `CCOc1cc(C)nc(N2CCN(Cc3nccn3CC)CC2)n1`, the cytotoxicity at 70.5 h rises from 1.46% to 7.28%.

Going from `O=C1CC(NS(=O)(=O)c2ccc(Cl)cc2)CN1` (configuration not stated) to `CN1CCC(N(C)C(=O)Nc2ccc(Cl)cc2)CC1`, the cytotoxicity at 70.5 h falls from 0.308% to -2.16%.

Compared with `Cc1cc(C(N)=O)nc(C2(C)CCCN2Cc2cnn(C)c2)n1` (configuration not stated), `Cc1cccc(CN2CCC3(CCCN(Cc4cnn(C)c4)C3)C2)n1` (configuration not stated) is lower in cytotoxicity at 70.5 h: -4.52% for the first, -14% for the second.

Going from `O=C(C1CCC1)N1C[C@@H]2CC[C@H](C1)N(S(=O)(=O)c1ccccc1)C2` to `O=C([C@@H]1C[C@@H]2CCN(CCc3ccccc3)C[C@H]2O1)N1CCCC1`, the cytotoxicity at 70.5 h rises from -8.37% to -3.84%.

First: COc1ccc(C2CCCN2C(=O)c2cc3c([nH]c2=O)CCC3)cc1 (configuration not stated)
Second: COc1ccc(C2(C(=O)N3CC[C@@]4(O)CCNC[C@H]4C3)CCCC2)cc1
The cytotoxicity at 70.5 h of the first is lower: -2.02% for the first, 17.8% for the second.

First: CCc1c(C)sc2nc3n(CCN(C)C)nc(SC)n3c(=O)c12
Second: Cc1cnc(C(=O)N(CCN(C)C)Cc2ccc(Cl)cc2)cn1
The cytotoxicity at 70.5 h of the first is higher: 20.8% for the first, -6.08% for the second.

First: CCCNC(=O)CCNC(=O)N1CCC(=Cc2ccccc2)CC1
Second: COC(=O)CNC(=O)N1CCC2(CC1)CC(c1ccccc1)CN(C)C2 (configuration not stated)
The cytotoxicity at 70.5 h of the first is lower: -4.61% for the first, 15.9% for the second.

Compared with `CC(=O)N1CC[C@H]2CC(=O)N(C3CC3)CC[C@H]2C1`, `CS(=O)(=O)N1C[C@@H]2CCN(C(=O)c3cscn3)[C@@H]2C1` is lower in cytotoxicity at 70.5 h: 14.2% for the first, -2.23% for the second.

First: CCc1nc2n(n1)CC(NCc1nc(-c3cccnc3)no1)CC2 (configuration not stated)
Second: CCc1nc2n(n1)CC(NCCc1cccs1)CC2 (configuration not stated)
The cytotoxicity at 70.5 h of the first is lower: -10.5% for the first, 3.55% for the second.

Going from `OCC1CCCCN1Cc1nc(Cc2ccccc2)no1` (configuration not stated) to `Cc1cnn(CC2CCCCN2Cc2nnsc2Cl)c1` (configuration not stated), the cytotoxicity at 70.5 h falls from -3.62% to -7.35%.

Compared with `Cc1nc(C)c(CN2CCOC[C@H](Oc3ccc(S(C)(=O)=O)cc3)C2)s1`, `CS(=O)(=O)N1CCOCC2(CN(Cc3ccc(F)cc3)CCO2)C1` (configuration not stated) is lower in cytotoxicity at 70.5 h: 0.478% for the first, -3.17% for the second.

Compared with `COc1ccc(Oc2cc(CN)ccn2)cc1`, `COc1ccc2nc(O)c(CN(C)Cc3ncc[nH]3)cc2c1` is lower in cytotoxicity at 70.5 h: 2.32% for the first, 1.48% for the second.

Compared with `CC(C)(C)c1noc(CCC(=O)N2CCNC(=O)C2)n1`, `CC(=O)NCC(=O)N1CCn2cc(CN(C)Cc3ccco3)nc2C1` is lower in cytotoxicity at 70.5 h: 7.96% for the first, 2.22% for the second.

Compared with `Cc1noc(C)c1CN1CCC2(CC1)NC(=O)CC2c1cnn(C)c1` (configuration not stated), `Cc1cc(CN2CCN(c3nn4cc(C)nc4s3)CC2)on1` is higher in cytotoxicity at 70.5 h: -8.52% for the first, -7.1% for the second.

Compared with `CCc1nnc(Nc2cccc(C3CCN(c4cnccn4)CC3)n2)s1`, `Cc1ccc(Nc2nccc(C3CCN(C(=O)CO)C3)n2)nc1` (configuration not stated) is lower in cytotoxicity at 70.5 h: 14.7% for the first, -11.2% for the second.

First: Cc1cnc2n(c1=O)CC(C(=O)Nc1cccc3cccnc13)CS2 (configuration not stated)
Second: Cc1ccc(S(=O)(=O)N2CC(C)Oc3ncccc32)c(F)c1 (configuration not stated)
The cytotoxicity at 70.5 h of the first is higher: -5.53% for the first, -7.65% for the second.

Compared with `CNC(=O)c1cc(C2CCCNC2)n[nH]1` (configuration not stated), `CN1CCCC1CNC(=O)c1nnn(-c2ccc(F)cc2)c1C1CC1` (configuration not stated) is higher in cytotoxicity at 70.5 h: 21.1% for the first, 22.3% for the second.

Going from `COc1ccc(NC(=O)NCCCn2nc3ccccn3c2=O)cc1` to `COc1ccc(OC)c(C(O)CNC(=O)Nc2cc(C)nn2C)c1` (configuration not stated), the cytotoxicity at 70.5 h falls from -3.39% to -7.8%.

First: COc1ccccc1OC1CN(C(=O)C(c2ccccc2F)N(C)C)C1 (configuration not stated)
Second: CCOCC1CCN(C(=O)C(c2ccccc2F)N(C)C)CC1 (configuration not stated)
The cytotoxicity at 70.5 h of the first is higher: -0.928% for the first, -8.49% for the second.

Going from `CN(CC(=O)NC(Cc1ccsc1)c1cccnc1)Cc1ccccn1` (configuration not stated) to `O=C(NCc1ccccn1)N(Cc1ccc(F)cc1F)C1CC1`, the cytotoxicity at 70.5 h falls from 31.3% to -17.3%.

First: c1cc(-c2ccc3c(c2)C2(CC3)CCN(c3nncs3)CC2)ccn1
Second: COc1ccc(C2(c3nc(-c4cccnc4)no3)CCOCC2)cc1
The cytotoxicity at 70.5 h of the first is lower: 1.28% for the first, 34.4% for the second.

First: CS(=O)(=O)N1CCCC12CCCN(C(=O)c1ccc[nH]1)C2 (configuration not stated)
Second: CO[C@H]1CO[C@@]2(CCCN(C(=O)C3=CCCCC3)C2)C1
The cytotoxicity at 70.5 h of the first is higher: 9.82% for the first, -2.72% for the second.

Going from `CCOc1ccc(CC(=O)N2CCN(c3nccn3C)CC2)cc1` to `Cc1cc(C(=O)N2CCCN(Cc3nccn3C(C)C)CC2)no1`, the cytotoxicity at 70.5 h falls from -2.2% to -5.9%.

Compared with `COc1cccc2c(=O)n(CCN3CCNCC3)cnc12`, `Cc1nnc2n1CCN(CCOc1cccc(C#N)c1)C2` is lower in cytotoxicity at 70.5 h: -0.783% for the first, -4.21% for the second.

First: CCCc1n[nH]c(=O)n1Cc1ccccc1F
Second: CN(Cc1nnc(C2CC2)o1)Cc1ccccc1N1CCOCC1
The cytotoxicity at 70.5 h of the first is higher: 2.4% for the first, -4.09% for the second.

Going from `CS(=O)(=O)N1CCC2(CC1)CN(CC1CC1)CC21CCNC1=O` (configuration not stated) to `CN(C)S(=O)(=O)N1C[C@H]2CCC[C@@]2(COCC2CCOCC2)C1`, the cytotoxicity at 70.5 h rises from -9.45% to 9.65%.

Compared with `COc1ccc(-n2ncc(C(C)NC3CCSCC3)c2C)cc1` (configuration not stated), `Cc1nnc(-c2cccc(N3CCC(NC4CCSC4)CC3)c2)s1` (configuration not stated) is higher in cytotoxicity at 70.5 h: -4.41% for the first, 4.71% for the second.

Going from `NCC1(CN2CCOCC2)CCCCC1` to `O=C(NCC1CCCCC1)N1C[C@H]2C[C@H](C(=O)N3CCOCC3)[C@@H](C1)O2`, the cytotoxicity at 70.5 h rises from 14.2% to 24.6%.

First: CCC(O)CN1CCN(C(=O)CCSC)CC1 (configuration not stated)
Second: CC(C)Nc1ncnc2c1CCN(C(=O)Cc1ccccn1)CC2
The cytotoxicity at 70.5 h of the first is lower: 0.756% for the first, 26.6% for the second.

Compared with `Cc1cc(C(=O)N2CCCC3(COCCN(CCN(C)C)C3)C2)no1` (configuration not stated), `COCCN1C[C@@H](C)[C@@]2(COCCN(C(=O)c3cnc(C)cn3)C2)C1` is lower in cytotoxicity at 70.5 h: 1.65% for the first, -5.26% for the second.

Compared with `COCc1cccc(CNCc2c(C)nn(C)c2N(C)C)c1`, `Cn1ncc2c1CCCC2NCc1ccc(OCc2cccnc2)cc1` (configuration not stated) is lower in cytotoxicity at 70.5 h: 42.4% for the first, -14.4% for the second.

First: CN1Cc2[nH]nc(COCC3CC3)c2C1
Second: CCCN1CCC(N2CCN(c3cc(C)nc(COC)n3)CC2)CC1
The cytotoxicity at 70.5 h of the first is lower: -11.3% for the first, 3.64% for the second.

Compared with `NCC1CCCCN1C(=O)Cc1ccc(F)c(F)c1` (configuration not stated), `O=c1cc(CN2CCCCC2c2cccc(F)c2)[nH]c2ncnn12` (configuration not stated) is lower in cytotoxicity at 70.5 h: -9.5% for the first, -10.8% for the second.

Compared with `O=S(=O)(c1cccnc1)N1CCC(OCCCc2ccccc2)C1` (configuration not stated), `CN1CC[C@]2(CN(CC3CCOC3)C[C@H]2c2ccccc2)C1=O` (some centres not stated) is higher in cytotoxicity at 70.5 h: -0.248% for the first, 16.2% for the second.

First: Cc1occc1CN(C)C(=O)Nc1ccc(=O)n(C)c1
Second: COc1ccc(C(=O)Nc2nncs2)cn1
The cytotoxicity at 70.5 h of the first is lower: -7.93% for the first, 27.2% for the second.

Compared with `O=C(NCCn1ccnc1-c1cc2n(n1)CCCNC2)c1ccncc1`, `CC(C(=O)Nc1ccc(N2CCCC2)nc1)n1ccnc1` (configuration not stated) is lower in cytotoxicity at 70.5 h: -2.02% for the first, -11.6% for the second.

Going from `Cc1cccc(C2(C(=O)NC(C)Cn3ccnc3)CC2)c1` (configuration not stated) to `CCn1nc(CC(C)C)cc1C(=O)NCCn1cccc1`, the cytotoxicity at 70.5 h rises from -8.86% to -2.38%.

Compared with `O=C(c1ccc(-n2cccc2)c(F)c1)N1CCCN2CCCC2C1` (configuration not stated), `Cc1ncc(CN2Cc3ccccc3O[C@]3(CC[C@H](CO)CC3)C2)cn1` is lower in cytotoxicity at 70.5 h: 8.53% for the first, -2.89% for the second.

First: CC(C)C1=NOC(c2nc(-c3cccc(Cl)c3)no2)C1 (configuration not stated)
Second: Fc1ccc(CNCC2OCCc3cn(CC4CC4)nc32)cc1 (configuration not stated)
The cytotoxicity at 70.5 h of the first is higher: 8.08% for the first, 5.14% for the second.

First: Cc1nc(CN2C(=O)C[C@H]3[C@H]2CCN3C2CCOC2)cs1 (some centres not stated)
Second: O=C(Nc1cccs1)N(CCO)CCOCC(F)(F)F
The cytotoxicity at 70.5 h of the first is higher: 28.1% for the first, 6.76% for the second.

Source: ChEMBL document CHEMBL3507680, “University of Dundee, Gates Library screen for HepG2 cell viability”
